Data published in patent publication US8741836B2, “Polypeptides” (Novo Nordisk A/S, priority 2011, dated 2014).
Starred links: 1 amine or outer side, 2 acyl side, 3 side chain; linkers in the order of their positions; H or OH if unused. Positions of bridges follow the written chain, without caps; N, C: chain ends. Residues, ends and D or L forms follow the SMILES beside them. *: point of attachment. C20 diacid = O=C(O)CCCCCCCCCCCCCCCCCCC(=O)*; γGlu = O=C(O)[C@H](CCC(=O)[*:2])N[*:1]

Tested on: ad libitum fed rat
Assay: Assay (I) efficacy testing on appetite (food intake) using an ad libitum fed rat model
Type: in vivo, Sprague Dawley (SD) rats
Settings: 3 nmol/kg
Description: In the following examples reference is made to the following Assays: • Assay (I)—Experimental protocol for efficacy testing on appetite using an ad libitum fed rat model • ASSAY (II)a—Functional assay—Human calcitonin and amylin receptor assay • ASSAY (II)b—Functional assay—Rat calcitonin and rat amylin receptor assays • ASSAY (III)—ThT fibrillation assays for the assessment of physical stability of protein formulations • ASSAY (IV)—Determination of solubility • ASSAY (V)—Determination of binding to the human amylin receptor • ASSAY (VI)—Determination of the binding to the rat amylin receptor • ASSAY (VII)—Determination of binding to the human calcitonin receptor • ASSAY (VIII)—Determination of binding to the rat calcitonin receptor • ASSAY (IX)—pK—Determination of T½ in mini-pig • ASSAY (X)—pK—Determination of T½ in rat Assay (I)—Experimental protocol for Efficacy Testing on Appetite Using an Ad Libitum Fed Rat Model
Sprague Dawley (SD) rats from Taconic Europe, Denmark are used for the experiments. The rats have a body weight 200-250 g at the start of experiment. The rats arrive at least 10-14 days before start of experiment to allow acclimatization to experimental settings. During this period the animals are handled at least 2 times. After arrival rats are housed individually for one week in a reversed light/dark phase (meaning that lights are off during daytime and on during nighttime) […]. Since rats are normally active and eat their major part of their daily food intake during the dark period, rats are dosed in the morning right before lights are turned off. This set-up results in the lowest data variation and highest test sensitivity. The experiment is conducted in the rats' home cages and rats have free access to food and water throughout the acclimatization period and the experiment period. Each dose of derivative is tested in a group of 5-8 rats. A vehicle group of 6-8 rats is included in each set of testing. Rats are dosed once according to body weight with a 0.01-3 mg/kg solution administered intraperitoneally (ip), orally (po) or subcutaneously (sc). The time of dosing is recorded for each group. After dosing, the rats are returned to their home cages, where they then have access to food and water. The food consumption is recorded individually continuously by on-line registration or manually every hour for 7 hours, and then after 24 h and sometimes 48 h. At the end of the experimental session, the animals are euthanised.
The individual data are recorded in Microsoft excel sheets. Outliers are excluded after applying the Grubbs statistical evaluation test for outliers, and the result is presented graphically using the GraphPad Prism program.

In the case of `CC[C@H](C)[C@H](NC(=O)[C@@H]1CCCN1C(=O)CNC(=O)[C@H](Cc1ccccc1)NC(=O)[C@H](CC(N)=O)NC(=O)[C@H](CC(N)=O)NC(=O)[C@H](CO)NC(=O)[C@H](CO)NC(=O)[C@H](CCCNC(=N)N)NC(=O)[C@@H](NC(=O)[C@H](CC(C)C)NC(=O)[C@H](Cc1ccccc1)NC(=O)[C@H](CCC(=O)O)NC(=O)[C@H](C)NC(=O)[C@H](CC(C)C)NC(=O)[C@H](CCCNC(=N)N)NC(=O)[C@H](CCC(N)=O)NC(=O)[C@@H](NC(=O)[C@H](C)NC(=O)[C@@H]1CSSC[C@H](NC(=O)[C@H](Cc2c[nH]cn2)NC(=O)CC[C@H](NC(=O)CCCCCCCCCCCCCCCCCCC(=O)O)C(=O)O)C(=O)N[C@@H](CC(N)=O)C(=O)N[C@@H]([C@@H](C)O)C(=O)N[C@@H](C)C(=O)N[C@@H]([C@@H](C)O)C(=O)N1)[C@@H](C)O)C(C)C)C(=O)N[C@@H](CC(C)C)C(=O)N1CCC[C@H]1C(=O)N1CCC[C@H]1C(=O)N[C@H](C(=O)N[C@@H](CC(N)=O)C(=O)N[C@H](C(=O)NCC(=O)N[C@@H](CO)C(=O)N[C@@H](CC(N)=O)C(=O)N[C@H](C(=O)N[C@@H](Cc1ccc(O)cc1)C(N)=O)[C@@H](C)O)C(C)C)[C@@H](C)O` [Example 15] ({C20 diacid-γGlu}-HCNTATCATQRLAEFLVRSSNNFGPILPPTNVGSNTY-NH2; disulfide 2-7 (inferred)), the “Food intake reduction 0-24 h 3 nmol/kg (%)” value is reported as 56% and the “Food intake reduction 24-48 h 3 nmol/kg (%)” value is reported as 59%.
`CC[C@H](C)[C@H](NC(=O)[C@@H]1CCCN1C(=O)CNC(=O)[C@H](Cc1ccccc1)NC(=O)[C@H](CC(N)=O)NC(=O)[C@H](CC(N)=O)NC(=O)[C@H](CO)NC(=O)[C@H](CO)NC(=O)[C@H](Cc1c[nH]cn1)NC(=O)[C@H](Cc1c[nH]cn1)NC(=O)[C@H](CC(C)C)NC(=O)[C@H](Cc1ccccc1)NC(=O)[C@H](CCC(=O)O)NC(=O)[C@H](C)NC(=O)[C@H](CC(C)C)NC(=O)[C@H](CCCNC(=N)N)NC(=O)[C@H](CCC(N)=O)NC(=O)[C@@H](NC(=O)[C@H](C)NC(=O)[C@@H]1CSSC[C@H](NC(=O)[C@H](Cc2c[nH]cn2)NC(=O)[C@H](Cc2c[nH]cn2)NC(=O)CC[C@H](NC(=O)CCCCCCCCCCCCCCCCCCC(=O)O)C(=O)O)C(=O)N[C@@H](CC(N)=O)C(=O)N[C@@H]([C@@H](C)O)C(=O)N[C@@H](C)C(=O)N[C@@H]([C@@H](C)O)C(=O)N1)[C@@H](C)O)C(=O)N[C@@H](CC(C)C)C(=O)N1CCC[C@H]1C(=O)N1CCC[C@H]1C(=O)N[C@H](C(=O)N[C@@H](CC(N)=O)C(=O)N[C@H](C(=O)NCC(=O)N[C@@H](CO)C(=O)N[C@@H](CC(N)=O)C(=O)N[C@H](C(=O)N[C@@H](Cc1ccc(O)cc1)C(N)=O)[C@@H](C)O)C(C)C)[C@@H](C)O` [Example 17, N-alpha-[(S)-4-Carboxy-4-(19-carboxynonadecanoylamino)butyryl]-His-[His1,Glu14,His17]-pramlintide] ({C20 diacid-γGlu}-HHCNTATCATQRLAEFLHHSSNNFGPILPPTNVGSNTY-NH2; disulfide 3-8) was tested, and the “Food intake reduction 0-24 h 3 nmol/kg (%)” value was 40% and the “Food intake reduction 24-48 h 3 nmol/kg (%)” value was 22%.
With `CC[C@H](C)[C@H](NC(=O)[C@@H]1CCCN1C(=O)CNC(=O)[C@H](Cc1ccccc1)NC(=O)[C@H](CC(N)=O)NC(=O)[C@H](CC(N)=O)NC(=O)[C@H](CO)NC(=O)[C@H](CO)NC(=O)[C@H](Cc1c[nH]cn1)NC(=O)[C@H](Cc1c[nH]cn1)NC(=O)[C@H](CC(C)C)NC(=O)[C@H](Cc1ccccc1)NC(=O)[C@H](CCC(=O)O)NC(=O)[C@H](C)NC(=O)[C@H](CC(C)C)NC(=O)[C@H](CCCNC(=N)N)NC(=O)[C@H](CCC(N)=O)NC(=O)[C@@H](NC(=O)[C@H](C)NC(=O)[C@@H]1CSSC[C@H](NC(=O)[C@H](Cc2c[nH]cn2)NC(=O)CC[C@H](NC(=O)CCCCCCCCCCCCCCCCCCC(=O)O)C(=O)O)C(=O)N[C@@H](CC(N)=O)C(=O)N[C@@H]([C@@H](C)O)C(=O)N[C@@H](C)C(=O)N[C@@H]([C@@H](C)O)C(=O)N1)[C@@H](C)O)C(=O)N[C@@H](CC(C)C)C(=O)N1CCC[C@H]1C(=O)N1CCC[C@H]1C(=O)N[C@H](C(=O)N[C@@H](CC(N)=O)C(=O)N[C@H](C(=O)NCC(=O)N[C@@H](CO)C(=O)N[C@@H](CC(N)=O)C(=O)N[C@H](C(=O)N[C@@H](Cc1ccc(O)cc1)C(N)=O)[C@@H](C)O)C(C)C)[C@@H](C)O` [Example 18, N-alpha-[(S)-4-Carboxy-4-(19-carboxynonadecanoylamino)butyryl]-[His1,Glu14,His17]-pramlintide] ({C20 diacid-γGlu}-HCNTATCATQRLAEFLHHSSNNFGPILPPTNVGSNTY-NH2; disulfide 2-7) the “Food intake reduction 0-24 h 3 nmol/kg (%)” value was 40% and the “Food intake reduction 24-48 h 3 nmol/kg (%)” value was 32%.
With `CC[C@H](C)[C@H](NC(=O)[C@@H]1CCCN1C(=O)CNC(=O)[C@H](Cc1ccccc1)NC(=O)[C@H](CC(N)=O)NC(=O)[C@H](CC(N)=O)NC(=O)[C@H](CO)NC(=O)[C@H](CO)NC(=O)[C@H](Cc1c[nH]cn1)NC(=O)[C@H](Cc1c[nH]cn1)NC(=O)[C@H](CC(C)C)NC(=O)[C@H](Cc1ccccc1)NC(=O)[C@H](CCC(=O)O)NC(=O)[C@H](C)NC(=O)[C@H](CC(C)C)NC(=O)[C@H](CCCNC(=N)N)NC(=O)[C@H](CCC(N)=O)NC(=O)[C@@H](NC(=O)[C@H](C)NC(=O)[C@@H]1CSSC[C@H](NC(=O)[C@H](Cc2c[nH]cn2)NC(=O)[C@H](Cc2c[nH]cn2)NC(=O)[C@H](Cc2c[nH]cn2)NC(=O)CC[C@H](NC(=O)CCCCCCCCCCCCCCCCCCC(=O)O)C(=O)O)C(=O)N[C@@H](CCCNC(=N)N)C(=O)N[C@@H]([C@@H](C)O)C(=O)N[C@@H](C)C(=O)N[C@@H]([C@@H](C)O)C(=O)N1)[C@@H](C)O)C(=O)N[C@@H](CC(C)C)C(=O)N1CCC[C@H]1C(=O)N1CCC[C@H]1C(=O)N[C@H](C(=O)N[C@@H](CC(N)=O)C(=O)N[C@H](C(=O)NCC(=O)N[C@@H](CO)C(=O)N[C@@H](CC(N)=O)C(=O)N[C@H](C(=O)N[C@@H](Cc1ccc(O)cc1)C(N)=O)[C@@H](C)O)C(C)C)[C@@H](C)O` [Example 22, N-alpha-[(S)-4-Carboxy-4-(19-carboxynonadecanoylamino)butyryl]-His-His-[His1,Arg3,Glu14,His17]-pramlintide] ({C20 diacid-γGlu}-HHHCRTATCATQRLAEFLHHSSNNFGPILPPTNVGSNTY-NH2; disulfide 4-9 (inferred)) the “Food intake reduction 0-24 h 3 nmol/kg (%)” value was 26% and the “Food intake reduction 24-48 h 3 nmol/kg (%)” value was 5%.
In the case of `CC[C@H](C)[C@H](NC(=O)[C@@H]1CCCN1C(=O)CNC(=O)[C@H](Cc1ccccc1)NC(=O)[C@H](CC(N)=O)NC(=O)[C@H](CC(N)=O)NC(=O)[C@H](CO)NC(=O)[C@H](CO)NC(=O)[C@H](Cc1c[nH]cn1)NC(=O)[C@H](Cc1c[nH]cn1)NC(=O)[C@H](CC(C)C)NC(=O)[C@H](Cc1ccccc1)NC(=O)[C@H](CCC(=O)O)NC(=O)[C@H](C)NC(=O)[C@H](CC(C)C)NC(=O)[C@H](CCCNC(=N)N)NC(=O)[C@H](CCC(N)=O)NC(=O)[C@@H](NC(=O)[C@H](C)NC(=O)[C@@H]1CSSC[C@H](NC(=O)[C@H](CCCCN)NC(=O)[C@H](CCC(=O)O)NC(=O)CC[C@H](NC(=O)CCCCCCCCCCCCCCCCCCC(=O)O)C(=O)O)C(=O)N[C@@H](CC(N)=O)C(=O)N[C@@H]([C@@H](C)O)C(=O)N[C@@H](C)C(=O)N[C@@H]([C@@H](C)O)C(=O)N1)[C@@H](C)O)C(=O)N[C@@H](CC(C)C)C(=O)N1CCC[C@H]1C(=O)N1CCC[C@H]1C(=O)N[C@H](C(=O)N[C@@H](CC(N)=O)C(=O)N[C@H](C(=O)NCC(=O)N[C@@H](CO)C(=O)N[C@@H](CC(N)=O)C(=O)N[C@H](C(=O)N[C@@H](Cc1ccc(O)cc1)C(N)=O)[C@@H](C)O)C(C)C)[C@@H](C)O` [Example 26, N-alpha-[(S)-4-Carboxy-4-(19-carboxynonadecanoylamino)butyryl]-Glu-[Glu14,His17]-pramlintide] ({C20 diacid-γGlu}-EKCNTATCATQRLAEFLHHSSNNFGPILPPTNVGSNTY-NH2; disulfide 3-8 (inferred)), the “Food intake reduction 0-24 h 3 nmol/kg (%)” value is reported as 46% and the “Food intake reduction 24-48 h 3 nmol/kg (%)” value is reported as 39%.
